According to patent publication US20140296288A1, “IMINO-SUGAR C-GLYCOSIDES, PREPARATION AND USE THEREOF” (UNIVERSITE PIERRE ET MARIE CURIE (PARIS 6), priority 2011, published 2014):
Like-named read-outs stand apart in the source and are kept apart here.

What was measured:
[1] = target: β-glucosidase; assay: In vitro glycosidase inhibition, β-glucosidase (almond); format: biochemical
Description: (§1) All glycosidases and p-nitrophenyl glycosides were purchased from Sigma-Aldrich Co. The enzyme assays were performed according to the methods described in Kato, A.; Miyauchi, S.; Kato, N.; Nash, R. J.; Yoshimura, Y.; Nakagome, I.; Hirono, S.; Takahata, H.; Adachi, I. Bioorg. Med. Chem. 19, 3558-3568, 2011. The activities were determined using an appropriate p-nitrophenyl glycoside as substrate at the optimum pH of each enzyme. The reaction mixture contained 2 mM of the substrate and the appropriate amount of enzyme. The reaction was stopped by adding 2 mL of 400 mM Na2CO3. The released p-nitrophenol was measured spectrometrically at 400 nm.

[2] = target: T1, α-glucosidase (Oryza sativa subsp. japonica, UniProt Q653V7); assay: In vitro glycosidase inhibition, α-glucosidase (rice); format: biochemical
T1 construct: purchased Sigma-Aldrich Co
Description: as §1

[3] = test system: β-N-acetyl hexosaminidase; assay: In vitro glycosidase inhibition, β-N-acetyl hexosaminidase (human placenta); format: biochemical; details: for selectivity of inhibitory activity towards β-N-acetyl hexosaminidase: versus the other glycosidases of Table 1; for IC50: β-N-acetyl hexosaminidase, human placenta
Description: as §1

[4] = target: T2, α-galactosidase (Coffea arabica, UniProt Q42656); assay: In vitro glycosidase inhibition, α-galactosidase (coffee beans); format: biochemical
T2 construct: purchased Sigma-Aldrich Co
Description: as §1

[5] = test system: β-galactosidase; assay: In vitro glycosidase inhibition, β-galactosidase (bovine liver); format: biochemical
Description: as §1

[6] = target: β-glucosidase; assay: In vitro glycosidase inhibition, β-glucosidase (bovine liver); format: biochemical
Description: as §1

[7] = target: T3, α-N-acetyl galactosaminidase (Gallus gallus, UniProt Q90744); assay: In vitro glycosidase inhibition, α-N-acetyl galactosaminidase (chicken liver); format: biochemical
T3 construct: purchased Sigma-Aldrich Co; host or cells: chicken liver
T3 sequence (Q90744 1-405): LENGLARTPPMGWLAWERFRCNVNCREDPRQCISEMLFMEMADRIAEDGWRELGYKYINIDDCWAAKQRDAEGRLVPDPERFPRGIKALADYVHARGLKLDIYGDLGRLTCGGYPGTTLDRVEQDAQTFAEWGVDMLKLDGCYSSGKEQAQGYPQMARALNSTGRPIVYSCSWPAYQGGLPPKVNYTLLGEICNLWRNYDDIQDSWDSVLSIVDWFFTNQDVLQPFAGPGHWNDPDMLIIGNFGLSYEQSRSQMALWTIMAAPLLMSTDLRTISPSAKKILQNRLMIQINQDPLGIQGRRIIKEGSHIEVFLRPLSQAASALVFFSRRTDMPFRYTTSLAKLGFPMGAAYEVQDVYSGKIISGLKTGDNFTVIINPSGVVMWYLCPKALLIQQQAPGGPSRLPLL
Description: as §1

[8] = target: β-N-acetyl hexosaminidase; assay: In vitro glycosidase inhibition, β-N-acetyl hexosaminidase (bovine kidney); format: biochemical
Description: as §1

[9] = target: T4, α-glucosidase (Saccharomyces cerevisiae, UniProt P53341); assay: In vitro glycosidase inhibition, α-glucosidase (yeast); format: biochemical
T4 construct: purchased Sigma-Aldrich Co
Description: as §1

[10] = target: β-mannosidase; assay: In vitro glycosidase inhibition, β-mannosidase (snail); format: biochemical
Description: as §1

[11] = target: T5, α-mannosidase (Canavalia ensiformis, UniProt C0HJB3); assay: In vitro glycosidase inhibition, α-mannosidase (jack beans); format: biochemical
T5 construct: purchased Sigma-Aldrich Co
T5 sequence (C0HJB3 1-981): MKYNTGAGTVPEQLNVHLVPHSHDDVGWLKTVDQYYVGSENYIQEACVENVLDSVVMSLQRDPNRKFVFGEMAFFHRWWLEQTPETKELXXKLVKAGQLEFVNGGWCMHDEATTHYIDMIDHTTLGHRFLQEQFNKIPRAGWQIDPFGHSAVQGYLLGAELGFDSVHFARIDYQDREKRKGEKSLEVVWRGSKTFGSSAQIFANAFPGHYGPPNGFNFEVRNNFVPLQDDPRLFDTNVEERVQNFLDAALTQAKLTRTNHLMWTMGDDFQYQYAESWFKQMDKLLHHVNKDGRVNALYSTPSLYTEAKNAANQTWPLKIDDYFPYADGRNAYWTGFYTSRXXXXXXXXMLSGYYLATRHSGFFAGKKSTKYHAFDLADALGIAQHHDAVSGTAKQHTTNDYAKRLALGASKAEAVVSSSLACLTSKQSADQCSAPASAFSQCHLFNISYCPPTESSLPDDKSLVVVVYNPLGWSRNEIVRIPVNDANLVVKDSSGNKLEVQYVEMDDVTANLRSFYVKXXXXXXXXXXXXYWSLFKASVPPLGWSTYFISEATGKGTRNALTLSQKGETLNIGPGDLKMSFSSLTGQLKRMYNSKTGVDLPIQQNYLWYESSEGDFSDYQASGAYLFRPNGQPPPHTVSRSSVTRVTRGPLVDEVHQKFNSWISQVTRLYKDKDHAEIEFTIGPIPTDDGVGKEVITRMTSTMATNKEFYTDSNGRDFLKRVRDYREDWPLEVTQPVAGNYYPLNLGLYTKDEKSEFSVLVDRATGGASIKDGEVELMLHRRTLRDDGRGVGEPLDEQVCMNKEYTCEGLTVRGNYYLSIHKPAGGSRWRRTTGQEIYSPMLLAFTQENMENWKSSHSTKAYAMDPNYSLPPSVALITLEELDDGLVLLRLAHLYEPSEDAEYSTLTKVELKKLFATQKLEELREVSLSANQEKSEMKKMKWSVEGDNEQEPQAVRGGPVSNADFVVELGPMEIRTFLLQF
Description: as §1

[12] = target: rat intestinal maltase; assay: In vitro glycosidase inhibition, α-glucosidase (rat intestinal maltase); format: biochemical
Description: as §1

[13] = test system: α-N-acetylglucosaminidase (NAGLU); assay: Enzyme activation assay, MPS IIIB fibroblasts GM01426; format: cell-based, human; details: 3 days, 0-10 μM
Description: (§2) Compounds (1) and (B) (compound (B) is described in A. Vasella, Helvetica Chimica Acta, 1998, 865) were tested in 3 Sanfillipo patient-derived fibroblast cell lines, named as MPS IIIB fibroblast cells lines below.
(§3) MPS IIIB fibroblasts (GM01426, GM02931 and GM00737) were cultured in the presence of various concentrations of compounds (1) and (B) (0-10 μM) for 3 days before α-N-acetylglucosaminidase (NAGLU) activity was measured in cell homogenates using 4-methylumbelliferyl-α-N-acetylglucosamine (4-MU-α-GlcNAc) as substrate. Cells were washed twice in phosphate buffered saline, homogenised in water using a small dounce homogeniser, centrifuged at 800 g for 5 min and the supernatant taken for protein and enzyme activity. Protein concentration was determined using the BCA assay (Pierce, UK) according to manufacturer's instructions. An aliquot, (5 μl) of homogenate was added to a well of a 96-well plate containing 10 μl 2 mM 4-MU substrate (in water) and 5 μl 0.2 M sodium acetate buffer, pH 4.3. Following incubation for 3-4 h at 37° C. in a humidified incubator, the reaction was stopped by adding 300 μl 0.5 M glycine/NaOH, pH 10.3 and the fluorescence measured at 460 nm using an excitation wavelength of 350 nm, em 460 nm. Enzyme activation is defined as the fold increase in fluorescence due to enzyme activity (FU/μg protein) in treated cells compared to untreated cells. […]

[14] = test system: α-N-acetylglucosaminidase (NAGLU); assay: Enzyme activation assay, MPS IIIB fibroblasts GM02931; format: cell-based, human; details: 3 days, 0-10 μM
Description: as §2, §3

[15] = test system: α-N-acetylglucosaminidase (NAGLU); assay: Enzyme activation assay, MPS IIIB fibroblasts GM00737; format: cell-based, human; details: 3 days, 0-10 μM
Description: as §2, §3

[16] = 1000 μM, read-out: % of inhibition at 1000 μM
[17] = read-out: % of inhibition at 1000 μM

T4 sequence (P53341 whole entry): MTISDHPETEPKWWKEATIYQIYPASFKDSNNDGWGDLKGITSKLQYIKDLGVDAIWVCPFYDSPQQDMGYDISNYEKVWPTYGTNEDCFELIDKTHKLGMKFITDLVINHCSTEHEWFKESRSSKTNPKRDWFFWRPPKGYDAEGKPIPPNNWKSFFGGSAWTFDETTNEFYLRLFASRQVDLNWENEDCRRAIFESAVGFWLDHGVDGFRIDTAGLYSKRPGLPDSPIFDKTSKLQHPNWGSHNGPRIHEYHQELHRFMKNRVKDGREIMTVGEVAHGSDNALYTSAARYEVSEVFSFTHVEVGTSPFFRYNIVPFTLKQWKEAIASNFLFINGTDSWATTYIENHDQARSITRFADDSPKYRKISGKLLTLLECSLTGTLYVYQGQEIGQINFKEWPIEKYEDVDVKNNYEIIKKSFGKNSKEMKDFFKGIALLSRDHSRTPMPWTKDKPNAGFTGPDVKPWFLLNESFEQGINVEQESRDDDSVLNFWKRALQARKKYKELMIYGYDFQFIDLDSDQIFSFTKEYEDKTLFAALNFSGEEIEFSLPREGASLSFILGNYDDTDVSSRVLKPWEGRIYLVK
T1 sequence (Q653V7 34-885): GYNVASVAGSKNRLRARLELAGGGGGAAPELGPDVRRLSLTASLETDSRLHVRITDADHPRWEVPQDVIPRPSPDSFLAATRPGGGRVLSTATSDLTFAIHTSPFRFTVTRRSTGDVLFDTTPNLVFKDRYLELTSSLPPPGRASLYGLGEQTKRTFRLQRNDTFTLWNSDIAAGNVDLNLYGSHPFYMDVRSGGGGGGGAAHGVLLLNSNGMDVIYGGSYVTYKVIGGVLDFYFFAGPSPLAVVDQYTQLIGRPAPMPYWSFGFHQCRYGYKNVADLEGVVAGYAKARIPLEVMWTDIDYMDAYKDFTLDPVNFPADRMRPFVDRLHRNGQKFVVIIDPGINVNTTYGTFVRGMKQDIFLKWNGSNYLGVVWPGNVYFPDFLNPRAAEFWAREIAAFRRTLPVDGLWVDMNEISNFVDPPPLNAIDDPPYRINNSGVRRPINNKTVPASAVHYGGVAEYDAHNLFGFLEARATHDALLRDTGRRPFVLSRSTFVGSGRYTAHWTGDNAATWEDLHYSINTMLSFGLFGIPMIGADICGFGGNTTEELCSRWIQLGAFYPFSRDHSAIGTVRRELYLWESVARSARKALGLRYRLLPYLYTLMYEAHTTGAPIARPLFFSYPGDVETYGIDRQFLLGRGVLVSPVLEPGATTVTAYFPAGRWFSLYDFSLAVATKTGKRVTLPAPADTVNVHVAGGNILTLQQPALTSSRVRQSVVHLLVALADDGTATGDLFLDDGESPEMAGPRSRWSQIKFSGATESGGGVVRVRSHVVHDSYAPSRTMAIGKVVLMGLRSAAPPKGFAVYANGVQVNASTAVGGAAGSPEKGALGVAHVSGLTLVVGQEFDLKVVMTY
T2 sequence (Q42656 16-378): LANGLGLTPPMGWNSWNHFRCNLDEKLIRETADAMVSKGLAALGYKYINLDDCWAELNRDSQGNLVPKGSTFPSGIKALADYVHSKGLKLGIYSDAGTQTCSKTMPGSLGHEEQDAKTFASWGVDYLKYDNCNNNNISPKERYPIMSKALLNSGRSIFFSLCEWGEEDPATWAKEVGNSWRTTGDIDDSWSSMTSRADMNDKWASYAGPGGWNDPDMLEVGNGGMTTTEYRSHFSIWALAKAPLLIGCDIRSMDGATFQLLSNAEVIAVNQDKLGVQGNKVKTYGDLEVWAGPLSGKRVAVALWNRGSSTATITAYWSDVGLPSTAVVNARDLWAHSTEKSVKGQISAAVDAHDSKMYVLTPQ

| Compound | IC50 [1] | % of inhibition at 1000 μM [1] [%] | inhibition at 1000 µM [2, 16] [%] | inhibition at 1000 µM ([2]; read-out: IC50) [%] | selectivity of inhibitory activity towards β-N-acetyl hexosaminidase [3] | IC50 [3] [µM] | inhibition at 1000 µM [4, 16] [%] | inhibition at 1000 µM ([4]; read-out: IC50) [%] | % of inhibition at 1000 μM [5] [%] | IC50 [6] | % of inhibition at 1000 μM [6] [%] | inhibition at 1000 µM [7, 16] [%] | inhibition at 1000 µM ([7]; read-out: IC50) [%] | IC50 [8] [µM] | inhibition at 1000 µM [9, 17] [%] | IC50 [10] | % of inhibition at 1000 μM [10] [%] | inhibition at 1000 µM [11, 16] [%] | inhibition at 1000 µM ([11]; read-out: IC50) [%] | IC50 [12] | also measured |
| --- | --- | --- | --- | --- | --- | --- | --- | --- | --- | --- | --- | --- | --- | --- | --- | --- | --- | --- | --- | --- | --- |
| CC(=O)N[C@@H]1[C@@H](O)[C@H](O)[C@@H](CO)N[C@H]1CO [1′, N-((2R,3R,4R,5S,6R)-3,4-dihydroxy-2,6-bis(hydroxymethyl)piperidin-5-yl)acetamide] | NI (No Inhibition (less than 50% inhibition at 1000 μM)) | 18.3 | 15.9 | < 50 | selective inhibitory activity | 72 | 13.1 | < 50 | 5.7 | NI (No Inhibition (less than 50% inhibition at 1000 μM)) | 15.5 | 42.7 | < 50 | 65 | 15.4 | NI (No Inhibition (less than 50% inhibition at 1000 μM)) | 0 | 0 | < 50 | NI (No Inhibition (less than 50% inhibition at 1000 μM)) | inhibition at 1000 µM ([9]; α-glucosidase, yeast, read-out: IC50): < 50%; % of inhibition at 1000 μM [12]: 1.3% |
| CC(=O)N[C@@H]1[C@@H](O)[C@H](O)[C@@H](CO)N[C@@H]1CO [Compound 1, N-((2R,3R,4R,5S,6S)-3,4-dihydroxy-2,6-bis(hydroxymethyl)piperidin-5-yl)acetamide] | NI (No Inhibition (less than 50% inhibition at 1000 μM)) | 5.0 | 32.3 | < 50 | selective inhibitory activity | 56 | 19.7 | < 50 | 5.0 | NI (No Inhibition (less than 50% inhibition at 1000 μM)) | 4.4 | 42.4 | < 50 | 67 | 18.5 | NI (No Inhibition (less than 50% inhibition at 1000 μM)) | 1.9 | 2.3 | < 50 | NI (No Inhibition (less than 50% inhibition at 1000 μM)) | inhibition at 1000 µM ([9]; read-out: IC50): < 50%; % of inhibition at 1000 μM [12]: 26.7% |
| N-((2R,3R,4R,5S,6S)-3,4-dihydroxy-2,6-bis(hydroxymethyl)piperidin-5-yl)acetamide [Compound 1] |  |  |  |  |  |  |  |  |  |  |  |  |  |  |  |  |  |  |  |  | NAGLU enzyme activation, result in words [13]: concentration dependent increase up to 1 μM; NAGLU enzyme activation (fold increase in FU/μg protein vs untreated cells) ([13]; best activation seen): 2.4 fold; NAGLU enzyme activation, result in words [14]: activation at lower concentrations; NAGLU enzyme activation, result in words [15]: activation at lower concentrations |
